Measured values from patent publication US6737246B2, “Method for detecting protein inhibitors and ligands of medical value” (Aventis Pharma Deutschland, GmbH, priority 2000, dated 2004).

Target: T1, MMP-13 (Homo sapiens, UniProt P45452)
T1 construct: purchased Invitek GmbH, Berlin, Germany HM 13110010
Test: MMP-13 marker substrate conversion (fluorescence) in the presence of collagen II and test substance
Type: biochemical
Conditions: control without test substance 49%
Protocol: MMP-13 was obtained as a commercial product (Cat. No. HM 13110010) from Invitek GmbH, Berlin, Germany, activated according to the manufacturer's instruction, and diluted to 10 μg/10 ml with TCB buffer. TCB buffer was prepared by dissolving 10 mM tris(hydroxymethyl)aminomethane (Sigma-Aldrich Chemie GmbH, Deisenhofen, Germany) in water and adjusting the pH to 7.5 with HCl. 100 mM CaCl2×2H2O (Merck KGaA, Darmstadt, Germany) and 0.05% of Brij 35 solution, 30% (w/v) (Sigma-Aldrich Chemie GmbH, Deisenhofen, Deutschland), are added to said solution.
A solution of 10 mmol/l (7-methoxycoumarin-4-yl )acetyl-Pro-Leu-Gly-Leu-(3-[2,4-dinitrophenyl]-L-2,3-diaminopropionyl)-Ala-Arg-[…] (SEQ ID NO: 1). (Bachem Biochemica GmbH, Heidelberg, Germany) in dimethyl sulfoxide (DMSO) (Riedel-de Haen AG, Seelze, Germany) was diluted 1:40 (v/v) with water.
10 mg of human […] (Biocon, Potsdam, Germany) were dissolved in 2400 μl of 10 mmol/l acetic acid (72 hours at 4° C.), and then 1300 μl of a sodium bicarbonate solution (250 mmol/l) CaCl2×2H2O (Merck KGaA, Darmstadt, Germany) were added dropwise.
Test substance (suspected inhibitor or ligand), typically dissolved in water at an appropriate concentration relative to the amount of enzyme used.
The components A) (25 μl), B) (5 μl), C) (10 μl) and D) (10 μl) were mixed in a total volume of 50 μl, and fluorescence was measured in a commercial spectrofluorimeter after 15 minutes (excitation at 330 nm, emission at 390 nm, Spectrafluor plus, Tecan Deutschland GmbH, Crailsheim, Germany).
Enzyme and inhibitor were preincubated at room temperature for 15 min. The reaction was started by adding 5 μl of marker substrate solution (component B at 25 μM).
The fluorescence in example 1 was set at 100%, and the measured values of the other examples are based on this value.

[1] = 200 μmol/l test substance, components A (MMP-13), B (marker substrate), C (collagen II) present

Row | Molecule | Measured value (fluorescence, example 1 set at 100%) [1] | Measured value (fluorescence, example 1 set at 100%) (200 μmol/l test substance, components A (MMP-13), B (marker substrate), C (collagen II) present, listed as (I)) | Measured value (fluorescence, example 1 set at 100%) (60 μg/well (60 μg/50 μl) test substance, components A, B, C present)
1 | C[C@H]1c2cccc(O)c2C(=O)C2=C(O)[C@]3(O)C(=O)C(C(N)=O)=C(O)[C@@H](N(C)C)[C@@H]3[C@@H](O)[C@@H]21 [doxycycline] | 0% | – | –
2 | Fc1ccc(/C(=C\CCN2CCC(=C(c3ccccc3)c3ccccc3)CC2)c2ccccc2)cc1 [substance (I), 4-(diphenylmethylene)-1-[4-(p-fluorophenyl)-4-phenyl-3-butenyl]piperidine] | 59% | 59% | –
3 | protamine sulfate | – | – | 73%
